This note sets out measurements from patent publication US20220282657A1 (priority 2016, published 2022).

For the experiment, the system named is spleen cells. Also on record: species or system CD-1 mice. The settings on record: mouse, in vivo.

In the case of QS21, the “cell-mediated immune response (cytokine profile), in words” value is “strong and balanced Th1 plus Th2 cytokine profile”.
